Like-named read-outs stand apart in the source and are kept apart here.
Experiments:
GPR139 [1] = molecular target: T1, GPR139 (Homo sapiens, UniProt Q6DWJ6); test: Phospho-ERK1/2 HTRF assay in CHO-GPR139 cells; assay type: cell-based; settings: ERK phosphorylation; for EC50 / pEC50 ± SEM: CHO-GPR139 cells; for Emax / Emax ± SEM: expressed relative to FBS positive control
T1 construct: host or cells: CHO-k1
T1 sequence (Q6DWJ6 1-353): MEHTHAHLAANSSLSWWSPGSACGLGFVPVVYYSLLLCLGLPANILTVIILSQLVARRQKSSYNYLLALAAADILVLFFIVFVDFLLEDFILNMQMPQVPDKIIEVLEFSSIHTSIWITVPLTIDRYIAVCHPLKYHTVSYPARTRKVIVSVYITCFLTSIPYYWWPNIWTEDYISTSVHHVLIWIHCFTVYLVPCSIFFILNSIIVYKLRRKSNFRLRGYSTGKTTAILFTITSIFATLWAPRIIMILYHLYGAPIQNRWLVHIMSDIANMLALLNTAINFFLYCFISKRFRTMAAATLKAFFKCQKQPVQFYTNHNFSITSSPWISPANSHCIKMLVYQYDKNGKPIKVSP
Experimental: All compounds were tested on a CHO-k1 cell line stably expressing GPR139 (CHO-GPR139)[11] kindly provided by H. Lundbeck A/S, Denmark. GPR139-specific responses were assessed using a CHO-k1 cell line stably expressing the muscarinic acetylcholine receptor M1 (CHO-M1) (The Missouri S&T cDNA Resource Center, # CEM100TN00).
Phospho-ERK measurements were made using the Advanced Phospho-ERK1/2 (Thr202/Tyr204) HTRF kit by Cisbio (Codolet, France). Approximately 24 hours prior to the experiment, CHO-GPR139 cells were plated at 50,000 cells/well onto a 96-well plate and cultured as detailed above. Approximately 6 hours later, the media was aspirated, replaced with 50 μL serum-free media, and the cells were allowed to serum starve overnight. The day of the experiment, serial dilutions of the test compounds and controls were made in serum-free media at 2x final concentration. 50 μL of test compounds were added directly to the appropriate wells for 5 minute stimulation at 37 °C. At this point, the media and compounds were rapidly aspirated, lysis/blocking buffer was added, and cells were lysed on a shaker for 30 minutes at room temperature.
(§1) The Ca^2+ and ERK responses were normalized as indicated and the concentration response curves were fitted by Prism 6 software (GraphPad) using nonlinear regression in a sigmoidal model with variable slope, as has been previously described.

GPR139 [2] = molecular target: T1, GPR139; test: Fluo-4 calcium mobilization assay, agonist mode, concentration-response curves in CHO-GPR139 cells; assay type: cell-based; settings: for pEC50 ± S.E.M. / EC50 / Emax ± S.E.M.: CHO-GPR139 cells; for EC50: at least three independent concentration-response curves in duplicate, read-out: EC50; for Emax ± S.E.M.: normalized to buffer (0%) and 8 μM 1a (100%)
Experimental: (§2) All compounds were tested on a CHO-k1 cell line stably expressing GPR139 (CHO-GPR139)[11] kindly provided by H. Lundbeck A/S, Denmark. GPR139-specific responses were assessed using a CHO-k1 cell line stably expressing the muscarinic acetylcholine receptor M1 (CHO-M1) (The Missouri S&T cDNA Resource Center, # CEM100TN00). The CHO-GPR139 cells were grown in Dulbecco’s modified Eagle’s medium (DMEM) F12-Kaighn’s (ThermoFisher Scientific # 21127) supplemented with 10% dialyzed fetal bovine serum (United States origin; ThermoFisher Scientific # 26400), 1% GlutaMAX-I (100X) (ThermoFisher Scientific # 35050061), and 100 units/mL penicillin and 100 µg/mL streptomycin (ThermoFisher Scientific # 15140122) and 1 mg/mL geneticin (ThermoFisher Scientific # 11811031). The CHO-M1 cells were grown in Ham’s F12 (ThermoFisher Scientific # 21765) supplemented with 10% fetal bovine serum (South American origin; ThermoFisher Scientific # 10270) + 100 units/mL penicillin and streptomycin and 0.25 mg/mL geneticin.
The Fluo-4 Ca^2+-assay was performed as described previously, with minor modifications. After 1 hour incubation with the Fluo-4 dye, the CHO-GPR139 cells were washed with 100 μL HEPES buffer (Hank’s Balanced Salt Solution (HBBS, ThermoFisher Scientific # 14175053) supplemented with 20 mM HEPES, 1 mM MgCl2, 1 mM CaCl2, pH = 7.4) and the compound library was then added in concentrations between 25–63 μM dissolved in HEPES buffer (supplemented with 2.5 mM probenecid and 1% DMSO) and pre-incubated for 10 min at 37 °C. 33 μL of 3.2 μM 1a were added automatically after baseline measurements. […] This set-up allowed us to identify both antagonists and agonists (Fig. 2).
Each compound, for which a concentration response curve was made, was tested at least three times in duplicate measurements. After the incubation with the Fluo-4 dye and a wash, 100 μL HEPES buffer (supplemented with 2.5 mM probenecid) was added to each well and incubated for 10 minutes at 37 °C before recording. 33 μL of compounds (4× concentrated) were added automatically after baseline measurements.
as §1

[3] = molecular target: T2, muscarinic acetylcholine receptor M1 (Homo sapiens, UniProt P11229); test: Calcium mobilization counter-screen in CHO-M1 cells; assay type: cell-based; settings: concentration from which the calcium response is nonspecific
T2 construct: host or cells: CHO-k1
T2 sequence (P11229 1-460): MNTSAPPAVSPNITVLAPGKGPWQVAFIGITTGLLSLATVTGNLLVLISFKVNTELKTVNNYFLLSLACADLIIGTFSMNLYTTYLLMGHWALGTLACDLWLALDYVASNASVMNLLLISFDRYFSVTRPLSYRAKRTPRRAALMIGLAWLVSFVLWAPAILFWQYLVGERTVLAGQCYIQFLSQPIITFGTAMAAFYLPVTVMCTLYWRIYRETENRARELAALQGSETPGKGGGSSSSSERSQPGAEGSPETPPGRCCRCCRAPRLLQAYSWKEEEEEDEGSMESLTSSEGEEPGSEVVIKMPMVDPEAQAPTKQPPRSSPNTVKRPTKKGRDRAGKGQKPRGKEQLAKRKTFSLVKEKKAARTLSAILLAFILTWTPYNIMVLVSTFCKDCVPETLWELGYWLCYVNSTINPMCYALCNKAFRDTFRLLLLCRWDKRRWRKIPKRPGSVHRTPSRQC
Experimental: as §2
The primary screening of 4,000 diverse screening compounds on GPR139, led us to identify 108 initial actives in GPR139-expressing cells. […] We excluded compounds that had (1) an effect on another simultaneously tested GPCR (data not shown), (2) reactive groups, or (3) poor predicted solubility. 52 of the active compounds were re-purchased for validation, which were tested at three concentrations (100, 50 and 25 μM) using the same methodology as in the screening campaign. […] None of the 11 hits promoted calcium mobilization in the M1 receptor cells (data not shown). The 11 hits were then screened in pure agonist mode (i.e., without the presence of 1a) to evaluate if they were agonists or antagonists (Fig. 3 and Supplementary Table S1). All 11 hits were agonists.
When screening the compounds as antagonists they were pre-incubated for 10 min as in the HTS. 33 μL of 3.2 μM 1a on the CHO-GPR139 cells or 20 μM carbachol on the CHO-M1 cells were added automatically after baseline measurements.

GPR139 [4] = molecular target: T1, GPR139; settings: proposed endogenous GPR139 ligands; cited from earlier work
[5] = read-out: pEC50 ± SEM (converted)
[6] = 5 minute stimulation, read-out: EC50

Row | Molecule | EC50 (GPR139 [1]; [5]) [nM] | Emax (GPR139 [1]) [%] | EC80 concentration (GPR139 [2]; used for second stimulation in the screen) [nM] | Note: Nonspecific ≥ concentration [3] | pEC50 ± S.E.M. (GPR139 [2]) | EC50 (GPR139 [2]) [nM] | Emax ± S.E.M. (GPR139 [2]) [%] | pEC50 ± SEM (GPR139 [1]) | EC50 (GPR139 [1]; [6]) [nM] | Emax ± SEM (GPR139 [1]) | EC50 (GPR139 [4]) [nM]
1 | COc1cc(OC)cc(C(=O)NNC(=O)Nc2cccc3ccccc23)c1 [1a, reference compound] | 28.2 | 81.5 ± 4.12 | 800 | – | – | – | – | – | – | – | –
2 | C[C@H](NC(=O)CNC(=O)c1cccc(Cl)c1)c1ccccc1 [7c, reference compound] | 12.9 | 89.1 ± 4.38 | – | – | – | – | – | – | – | – | –
3 | CC(=O)c1c(C)[nH]c(C(=O)CN2C(=O)NC(C)(c3ccc4c(c3)OCCO4)C2=O)c1C (centres unmarked) [AC123] | – | – | – | Nonspecific ≥ 10 μM | 6.13 ± 0.14 | 740 | 104 ± 1 | – | – | – | –
4 | CC1(c2ccc3c(c2)OCO3)NC(=O)N(CC(=O)c2ccc(Cl)s2)C1=O (centres unmarked) [AC134] | – | – | – | Nonspecific ≥ 40 μM | 6.09 ± 0.15 | 800 | 103 ± 5 | – | – | – | –
5 | Cc1ccc(C(C)NC(=O)NCC(=O)NCC2CC2)cc1F (centres unmarked) [AC177] | – | – | – | – | 7.02 ± 0.11 | 90 | 103 ± 1 | 7.65 ± 0.13 | 22 | 79.10 ± 3.19 | –
6 | CC(C)COCCCNC(=O)NC(C)c1ccc(Cl)cc1Cl (centres unmarked) [AC183] | – | – | – | – | 6.74 ± 0.19 | 180 | 110 ± 10 | 7.41 ± 0.25 | 39 | 64.38 ± 5.28 | –
7 | C=CCN(CC=C)C(=O)CN1C(=O)NC(C)(c2ccc3c(c2)OCCO3)C1=O (centres unmarked) [AC194] | – | – | – | – | 6.68 ± 0.02 | 210 | 106 ± 4 | 7.41 ± 0.30 | 39 | 62.32 ± 6.66 | –
8 | CC1(c2ccc3c(c2)OCO3)NC(=O)N(CC(=O)N2CCc3ccccc32)C1=O (centres unmarked) [AC197] | – | – | – | – | 6.71 ± 0.14 | 190 | 103 ± 1 | 7.03 ± 0.14 | – | 78.70 ± 4.05 | –
9 | CCc1cccc2c(C(=O)CN3C(=O)NC(C)(c4ccc5c(c4)OCO5)C3=O)c[nH]c12 (centres unmarked) [AC206] | – | – | – | Nonspecific ≥ 100 μM | 6.42 ± 0.06 | 380 | 94 ± 3 | – | – | – | –
10 | CC1Cc2ccccc2N1C(=O)CN1C(=O)NC(C)(c2ccc3c(c2)OCCO3)C1=O (centres unmarked) [AC208] | – | – | – | Nonspecific ≥ 30 μM | 6.05 ± 0.60 | 880 | 134 ± 26 | – | – | – | –
11 | CCCCC/C=C/C/C=C/CCCCCCCC(=O)NC(C)c1ccccc1 (centres unmarked) [AC223] | – | – | – | Nonspecific ≥ 50 μM | – | – | – | – | – | – | –
12 | COc1cc(OC)cc(C(=O)NN2C(=O)NC(C)(c3ccccc3)C2=O)c1 (centres unmarked) [AC224] | – | – | – | – | 7.03 ± 0.02 | 90 | 106 ± 1 | 7.51 ± 0.28 | 31 | 69.37 ± 8.01 | –
13 | COc1cccc(C(=O)CN2C(=O)NC(C)(c3ccc(Cl)cc3)C2=O)c1 (centres unmarked) [AC225] | – | – | – | Nonspecific ≥ 10 μM | 6.56 ± 0.05 | 280 | 120 ± 5 | – | – | – | –
14 | N[C@@H](Cc1c[nH]c2ccccc12)C(=O)O [L-tryptophan, reference compound] | 759000 | 70.6 ± 8.59 | – | – | – | – | – | – | 770000 | – | –
15 | ACTH: adrenocorticotropic hormone, proposed endogenous GPR139 ligand (SYSMEHFRWGKPVGKKRRPVKVYPNGAEDESAEAFPLEF; Corticotropin; UniProt P01189 138-176, looked up) | – | – | – | – | – | – | – | – | – | – | 2100
